A word on the IC50: it is the concentration at which inhibition is half-maximal. As a reminder, the melting point is the temperature, or range, at which the solid turns liquid.

Entries after “also recorded” stand apart in the source; their conditions may differ. Read-outs that look alike come from different tables or passages of the source. Some results are limits rather than exact numbers.

These results are taken from article PMC8279495, “Design, Synthesis, and Biological Evaluation of Boron-Containing Macrocyclic Polyamines and Their Zinc(II) Complexes for Boron Neutron Capture Therapy” (Journal of Medicinal Chemistry, 2021).

In one data set the test system is IMR-90 cells. As to the kind of experiment: MTT cytotoxicity assay, IMR-90 cells. In kind it is cell-based. The note with it: 0–200 μM, treatment for 24 h, normal human fibroblast. The protocol: (§1) HeLa S3, A549, and IMR-90 cells (1 × 10^4 cells/well) were seeded on 96-well plates (Watson) in cell culture medium. […] After incubation for 4 h, a formazan lysis solution (10% sodium dodecyl sulfate in 0.01 N HCl aq) (100 μL) was added and the resulting solution was incubated under same conditions overnight. The absorbance at λ = 570 nm was measured with a microplate reader (Bio-Rad).
(Tetrazolium assays rely on reduction of a dye to a coloured formazan, in cell work by metabolically active cells.)

Data set [1] deals with A549 cells. As to the kind of experiment: MTT cytotoxicity assay, A549 cells. It counts as cell-based, human. The following applies: read-out: IC50 A549. Here is the method:
as §1

Data set [2] relates to HeLa S3 cells. As to the kind of experiment: MTT cytotoxicity assay, HeLa S3 cells. It counts as cell-based, human. The note with it: treatment for 24 h. The protocol:
as §1

The test system of data set [3] is HeLa S3 cells. The experiment in a line: Effect of inhibitors on intracellular uptake, HeLa S3 cells. In kind it is cell-based, human. The note with it: HeLa S3, 30 μM, 37 °C, 1 h. The protocol:
Data represent the mean ± SD of at least three replicates.
HeLa S3 and A549 cells (5 × 10^5 cells/well) were seeded on 6-well plates (TrueLine, USA) and incubated in cell culture medium at 37 °C under 5% CO2 for 2 days (n = 4). […] To count the number of cells after treatment with the boron compounds, the cells (n = 1) were washed with PBS, detached by trypsin, and counted with a hemocytometer. For measurement of boron uptake, the cells (n = 3) were washed with PBS (1 mL ×3) and digested with 60% HNO3 aq (0.5 mL) at room temperature for 24 h, which were transferred to 15 mL centrifuge tubes with Milli-Q water (3.5 mL). These tubes were centrifuged at 3000 rpm and 4 °C for 10 min and then sample solutions were filtered. The concentration of boron atoms was determined by ICP–MS (NexION300S, PerkinElmer, Waltham, Massachusetts, USA).

Details of data set [4]: method as in earlier work. The following applies: aqueous solution at 25 °C, ref 24−26; cited from earlier work.
The test system of data set [5] is double-stranded calf-thymus DNA (ctDNA). As to the kind of experiment: Thermal denaturation (melting temperature) of ctDNA. It counts as binding. The note with it: pH 7.4; for Tm of ctDNA: without additive 66. The protocol: Thermal denaturation experiments of ctDNA (50 μM in phosphate) in 10 mM HEPES buffer (pH 7.4) with I = 0.02 (NaNO3) were performed on a JASCO V-550 UV/vis spectrophotometer (JASCO, Tokyo, Japan) equipped with a thermoelectric temperature controller (±0.5 °C), a stirring unit, and a 10 mm quartz cuvette. All aqueous solutions were made with purified water. The concentration of ctDNA was determined by UV absorption spectroscopy based on its molar extinction coefficient at 253 nm (ε253 = 6.6 × 10^3).[31d],[45] […] The Tm value was graphically determined from the spectral data, and the ΔTm value for each condition was calculated from the results in the presence and absence of additives.

The subject of data set [6] is A549 cells. As to the kind of experiment: Anti-tumor effect with thermal neutron irradiation (colony formation assay). The note with it: A549, 30 μM for 24 h, thermal neutrons 0–45 min, colony formation after 7 days. It counts as cell-based, human. Here is the method:
BNCT experiments using A549 cells in the presence of the aforementioned B-containing drugs (^10B/^11B and ^10B-enriched compounds) were conducted at the Institute for Integrated Radiation and Nuclear Science, Kyoto University (KURNS). As shown in Scheme 12, A549 cells were incubated with the boron compounds (30 μM) for 24 h and suspensions (5 × 10^4 cells/mL) of these cells were irradiated with thermal neutrons [average thermal neutron flux: (1.5 ± 0.1) × 10^9 n/cm^2·s] at room temperature for various times (0, 15, 30, and 45 min). The irradiated cells were seeded on the 12 well plate (3 × 10^3 cells/well), incubated for 7 days, fixed with EtOH, and stained with crystal violet to produce visualizable images (Figure S5 in the Supporting Information). The surviving fractions were calculated as the stained colony area using the “ImageJ-plugin Colony Area”[43] software and normalized by comparing the results with those for non-irradiated cell samples (Figure 6).
A549 cells (5 × 10^5 cells/well) were seeded on 6-well plates (TrueLine, USA) and incubated in cell culture medium at 37 °C under 5% CO2 for 1 day. After removing the cell culture medium, the cells were washed gently with PBS. […] The thermal neutron flux (1.5 × 10^9 n/cm^2·s) was measured by two gold foils which were attached to the surface of the 1.5 mL tube. […]

Data set [7] in a line: Hydrolysis of the C–B bond observed by ^11B-NMR. In kind it is physicochemical. An excerpt:
The Zn^2+ complex of the o-form 7 was not obtained due to the carbon–boron bond cleavage that occurred upon complexation with Zn^2+, as previously described.[20]

Details of data set [8]: method as in PMID 32192025. The following applies: aqueous solution at 25 °C; cited from earlier work.
The mark [9] stands for this setting: Homo sapiens, HeLa S3, 0–200 μM.

In the case of “sodium mercaptoborate [compound 1, reference compound]”, the IC50 was above 200 µM in the data set with IMR-90 cells; above 200 µM with A549 cells [1] (MTT, 0–200 μM, treatment for 24 h); above 200 µM in the data set on HeLa S3 cells [2] (0–200 μM).

As to `N[C@@H](Cc1ccc([10B](O)O)cc1)C(=O)O` [compound 2, L-4-boronophenylalanine, reference compound], the half-inhibitory concentration (IC50) is above 200 µM with IMR-90 cells (Homo sapiens, IMR-90, 24 h); above 200 µM in the data set on A549 cells [1] (Homo sapiens, A549, 24 h, MTT, 0–200 μM, treatment for 24 h); above 200 µM with HeLa S3 cells [2] (setting [9]). For the same compound, the “relative uptake in the presence of MβCD” value with HeLa S3 cells [3] (1.5 mM of MβCD) is “weak inhibition”. Besides, the “relative uptake in the presence of amiloride” value with HeLa S3 cells [3] (2 mM of amiloride) is “increased intracellular uptake”.

For `C1CNCCNCCNCCNCCN1` [compound 11, 1,4,7,10,13-pentaazacyclopentadecane], in data set [4], the pKa1 result is listed as “less than 2” and the pKa2 result is listed as “less than 2”.

Regarding `O=C(O)C(F)(F)F.OB(O)c1ccc(CN2CCNCCNCCNCC2)cc1` [13a, 1-[(4-Boronopheny)methyl]-1,4,7,10-tetraazacyclododecane], the melting point is 172 to 175 °C. The compound also gave a 50% inhibitory concentration (IC50) in the data set with IMR-90 cells (Homo sapiens, IMR-90, 24 h) above 200 µM. In addition, in the data set on A549 cells [1] (Homo sapiens, A549, 24 h), the concentration for half-maximal inhibition (IC50) is above 200 µM. This compound also had an IC50 in the data set with HeLa S3 cells [2] (setting [9]) above 200 µM.

As for `O=C(O)C(F)(F)F.OB(O)c1ccc(CN2CCNCCNCC2)cc1` [12a, 1-[(4-Boronopheny)methyl]-1,4,7-triazacyclononane], the melting point fell in the range of 138 to 141 °C. Besides, the IC50 in the data set on IMR-90 cells (Homo sapiens, IMR-90, 24 h) is above 200 µM. Besides, the IC50 in the data set with A549 cells [1] (Homo sapiens, A549, 24 h) was above 200 µM. The compound also yielded a half-maximal inhibitory concentration (IC50) with HeLa S3 cells [2] (setting [9]) above 200 µM.

Consider `NCCCCNCCCN` [compound 3, spermidine], for which the “ΔTm of ctDNA” value in data set [5] (r = 0.1, [ctDNA(P)] = 50 μM) is “+7 °C”; in data set [5] (r = 0.2, [ctDNA(P)] = 50 μM), “+12 °C”. The “Tm of ctDNA” value in [5] (r = 0.1, [ctDNA(P)] = 50 μM) was 73 °C; in data set [5] (r = 0.2, [ctDNA(P)] = 50 μM), 78 °C.

Consider `c1cc(CN2CCNCCNCCNCC2)cc(B2OC3(CCCCC3)C3(CCCCC3)O2)c1` [16b], for which the melting point lay within 46 to 48 °C.

For `c1cc(C2OC3(CCCCC3)C3(CCCCC3)O2)ccc1CN1CCNCCNCCNCCNCC1` [^10B-17a, 1-[4-(13,15-Dioxa-15-boradispiro[5.0.5.3]pentadec-14-yl)phenyl]methyl-1,4,7,10,13-pentaazacyclopentadecane], the “BNCT effect (cytotoxic activity after thermal neutron irradiation, surviving fraction)” value in the data set on A549 cells [6] is “higher than that for 1 (^10B-BSH) and 2 (^10B-BPA); also recorded: higher BNCT effect than ^10B-19b and ^10B-20a”.

`c1cc(B2OC3(CCCCC3)C3(CCCCC3)O2)ccc1CN1CCNCCNCCNCCNCC1` [17a] yielded a melting point of 43 to 44 °C.

For `c1cc(B2OC3(CCCCC3)C3(CCCCC3)O2)ccc1CN1CCNCCNCCNCC1` [16a], the melting point is 129 to 131 °C.

On to `c1cc(CN2CCNCCNCC2)cc(B2OC3(CCCCC3)C3(CCCCC3)O2)c1` [15b], for which the melting point was in the range of 57 to 58 °C.

`c1ccc(B2OC3(CCCCC3)C3(CCCCC3)O2)c(CN2CCNCCNCCNCCNCC2)c1` [17c, 1-[2-(13,15-Dioxa-15-boradispiro[5.0.5.3]pentadec-14-yl)phenyl]methyl-1,4,7,10,13-pentaazacyclopentadecane] showed a melting point of 78 to 80 °C.

As for `[Zn+2].c1ccc(B2OC3(CCCCC3)C3(CCCCC3)O2)c(CN2CCNCCNCCNCCNCC2)c1` [20c], the “half-life of C–B bond hydrolysis” value in data set [7] was around 24 h.

On to `C1CNCCNCCNCCN1` [compound 10, 1,4,7,10-tetraazacyclododecane], for which, in [4], the pKa1 result is given as “less than 2” and the pKa2 entry is given as “less than 2”.

In turn, `O=C(O)C(F)(F)F.OB(O)c1ccc(CN2CCNCCNCCNCCNCC2)cc1` [14a, 1-[(4-Boronopheny)methyl]-1,4,7,10,13-pentaazacyclopentadecane] had a melting point of 136 to 137 °C. In addition, in the data set with IMR-90 cells (Homo sapiens, IMR-90, 24 h), the half-maximal inhibitory concentration (IC50) is above 200 µM. The 50% inhibitory concentration (IC50) in the data set on A549 cells [1] (Homo sapiens, A549, 24 h) was above 200 µM. In the data set on HeLa S3 cells [2] (setting [9]), this compound came in with an IC50 above 200 µM.

In the case of `C1CNCCNCCN1` [compound 9, 1,4,7-triazacyclononane], the pKa1 result in [4] was “less than 2”.

For `c1cc(B2OC3(CCCCC3)C3(CCCCC3)O2)ccc1CN1CCNCCNCC1` [15a], the melting point lay in the range of 65 to 67 °C.

As to `C1CNCCNCCN1.[Zn+2]` [compound 31], the “log KZnL” value in data set [8] is recorded as 11.3.
